What was measured:
[1] = tested on: CYP51; conditions: 50 μM substrate, TbCPR, NADPH, pH 6.2, 37 °C
[2] = target: L. donovani CYP51 (Leishmania donovani, UniProt A0A3S7WRS7); assay: UV-Vis difference binding spectra of ligands with purified recombinant CYP51
[3] = target: T1, L. donovani CYP5122A1 (Leishmania donovani, UniProt A0A3S7X0B6); assay: UV-Vis difference binding spectra of ligands with purified recombinant CYP5122A1
T1 sequence (A0A3S7X0B6 61-592): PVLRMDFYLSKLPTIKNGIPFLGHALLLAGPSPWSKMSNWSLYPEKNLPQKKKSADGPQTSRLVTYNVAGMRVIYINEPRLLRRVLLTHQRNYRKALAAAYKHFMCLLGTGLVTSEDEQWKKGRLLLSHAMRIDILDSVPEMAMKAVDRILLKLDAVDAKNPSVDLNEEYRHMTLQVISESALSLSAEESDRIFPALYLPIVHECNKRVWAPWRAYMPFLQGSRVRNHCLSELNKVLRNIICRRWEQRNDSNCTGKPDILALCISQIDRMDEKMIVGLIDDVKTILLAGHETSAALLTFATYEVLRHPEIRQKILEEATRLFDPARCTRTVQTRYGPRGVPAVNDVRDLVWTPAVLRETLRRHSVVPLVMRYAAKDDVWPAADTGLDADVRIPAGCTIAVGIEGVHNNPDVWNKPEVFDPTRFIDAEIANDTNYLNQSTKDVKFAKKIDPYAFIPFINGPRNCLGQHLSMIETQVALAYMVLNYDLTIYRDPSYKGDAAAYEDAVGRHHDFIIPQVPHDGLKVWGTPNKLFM

[4] = tested on: CYP5122A1; conditions: 50 μM substrate, TbCPR, NADPH, pH 6.2, 37 °C
[5] = target: T2, LdCYP51 (Leishmania donovani, UniProt A0A3S7WRS7); assay: biochemical
T2 sequence (A0A3S7WRS7 32-480): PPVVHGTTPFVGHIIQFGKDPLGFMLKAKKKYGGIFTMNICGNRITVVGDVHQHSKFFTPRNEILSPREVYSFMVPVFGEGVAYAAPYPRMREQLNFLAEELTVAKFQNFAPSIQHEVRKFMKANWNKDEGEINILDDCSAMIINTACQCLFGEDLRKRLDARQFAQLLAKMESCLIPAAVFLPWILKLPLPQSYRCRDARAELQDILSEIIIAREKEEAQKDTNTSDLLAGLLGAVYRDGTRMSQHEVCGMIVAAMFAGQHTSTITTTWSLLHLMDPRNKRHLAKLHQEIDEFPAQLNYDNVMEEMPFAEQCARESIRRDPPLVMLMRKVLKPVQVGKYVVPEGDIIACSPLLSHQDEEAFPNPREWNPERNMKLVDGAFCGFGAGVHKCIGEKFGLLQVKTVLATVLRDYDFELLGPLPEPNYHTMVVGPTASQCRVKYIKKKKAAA

[6] = tested on: L. donovani LV82 promastigote cultures; assay: Microscopic counts of LV82 promastigote cultures; format: cell-based, Leishmania donovani; conditions: LV82 promastigotes, cell counts daily for three days
[7] = tested on: L. donovani LV82 promastigotes; assay: microbe, parasite or virus in culture; conditions: Leishmania donovani, 72 h, read-out: EC50 (L. donovani)
[8] = target: T3, LdCYP5122A1 (Leishmania donovani, UniProt A0A3S7X0B6); assay: biochemical
T3 sequence (A0A3S7X0B6 61-592): T1 sequence (A0A3S7X0B6 61-592)

[9] = target: T3, LdCYP5122A1
[10] = tested on: L. donovani strain 1S2D promastigotes (Ld1S WT and CYP5122A1 mutants); conditions: promastigote growth, 48 hours
[11] = tested on: intracellular L. major and L. amazonensis; conditions: cited from earlier work
[12] = tested on: sterol profile of LV82 promastigotes; assay: LC-MS/MS sterol analysis of inhibitor-treated LV82 promastigotes; format: cell-based, Leishmania donovani; conditions: 20 μM clotrimazole vs. DMSO, 24 hr
[13] = tested on: multiple strains of L. donovani and L. infantum promastigotes; conditions: 1 μg/mL; cited from earlier work
[14] = target: T2, LdCYP51; conditions: 100 μM

L. donovani CYP51, sequence (A0A3S7WRS7 32-480): as above

Row | SMILES | Binding mode with CYP51 (difference binding spectrum) [2] | Binding mode with CYP5122A1 (difference binding spectrum) [3] | EC50 [7] [nM] | IC50 [5] [nM] | SI (selectivity index) = IC50 against LdCYP5122A1/IC50 against LdCYP51 [9] | IC50 [8] [nM] | other results
1 | CC(C)=CCC[C@@H](C)[C@H]1CC[C@@]2(C)C3=C(CC[C@]12C)[C@@]1(C)CC[C@H](O)[C@@H](C)[C@@H]1CC3 [4,14-DMZ, 4α,14α-Dimethylzymosterol] | typical type I binding | type I binding | – | – | – | – | Oxidation by reconstituted CYP51 [1]: C14-demethylation; Oxidation by reconstituted CYP5122A1 [4]: metabolized by this enzyme
2 | CC(C)=CCC[C@@H](C)[C@H]1CC[C@H]2C3=CC=C4C[C@@H](O)CC[C@]4(C)[C@H]3CC[C@]12C [7-Dehydrodesmosterol] | atypical difference binding spectrum | did not induce any appreciable change | – | – | – | – | Oxidation by reconstituted CYP51 [1]: oxidized by CYP51 to form hydroxylated metabolites; Oxidation by reconstituted CYP5122A1 [4]: No oxidation metabolite formation
3 | C[C@@H]1[C@H](O)[C@@H](C)/C=C/C=C/C=C/C=C/C=C/C=C/C=C/[C@H](O[C@@H]2O[C@H](C)[C@@H](O)[C@H](N)[C@@H]2O)C[C@@H]2O[C@](O)(C[C@@H](O)C[C@@H](O)[C@H](O)CC[C@@H](O)C[C@@H](O)CC(=O)O[C@H]1C)C[C@H](O)[C@H]2C(=O)O [Amphotericin B] | – | – | 140 ± 10 | – | – | – | inhibition at 10 µM ([5]; read-out: % inhibition of LdCYP51 at 10 μM): < 25%; Leishmanicidal vs. leishmanistatic effect [6]: leishmanicidal effect; inhibition at 10 µM ([8]; read-out: % inhibition of LdCYP5122A1 at 10 μM): < 25%
4 | c1ccc(-c2ccc(C(c3ccccc3)n3ccnc3)cc2)cc1 (stereo not shown) [Bifonazole] | – | – | 12000 ± 1000 | 57 ± 8 | 5.7 | 330 ± 70 | –
5 | Clc1ccc(CCC(Cn2ccnc2)Sc2c(Cl)cccc2Cl)cc1 (stereo not shown) [Butoconazole] | – | – | 1900 ± 400 | 73 ± 8 | 4.4 | 320 ± 70 | Leishmanicidal vs. leishmanistatic effect ([6]; listed as butaconazole): leishmanistatic effect
6 | Clc1ccccc1C(c1ccccc1)(c1ccccc1)n1ccnc1 [Clotrimazole] | type II binding | type II binding | – | 68 ± 4 | – | 260 ± 80 | Sensitivity of CYP5122A1 mutants compared with Ld1S WT [10]: no significant differences; Growth inhibition of intracellular L. major and L. amazonensis [11]: strongly inhibited the growth; 4,14-Dimethylzymosterol level normalized to DMSO-treated parasites [12]: 43 ± 18; 4CH2OH-LS level normalized to DMSO-treated parasites [12]: 2.3 ± 0.5; 5-Dehydroepisterol level normalized to DMSO-treated parasites [12]: 0.20 ± 0.04; 7-Dehydrodesmosterol level normalized to DMSO-treated parasites [12]: 0^d,**; 14-Methylfecosterol level normalized to DMSO-treated parasites [12]: Accumulated^a,***; 14-Methylzymosterol level normalized to DMSO-treated parasites [12]: 2.3 ± 0.4; Cholesterol (exogenous) level normalized to DMSO-treated parasites [12]: 1.1 ± 0.2; Ergosta-5,7-dienol level normalized to DMSO-treated parasites [12]: 0.79 ± 0.26; Ergostatetraenol level normalized to DMSO-treated parasites [12]: 0 ^d,**; Ergosterol level normalized to DMSO-treated parasites [12]: 0.26 ± 0.07; FF-MAS level normalized to DMSO-treated parasites [12]: Not detected; Lanosterol level normalized to DMSO-treated parasites [12]: 2.7 ± 0.9; T-MAS level normalized to DMSO-treated parasites [12]: Not detected; Zymosterol level normalized to DMSO-treated parasites ([12]; not separated from cholesta-7,24-dienol): 0.018 ± 0.006; 4-Methylzymosterol level normalized to DMSO-treated parasites ([12]; not separated from episterol and fecosterol): 0.025 ± 0.013; Cholesta-7,24-dienol level normalized to DMSO-treated parasites ([12]; not separated from zymosterol): 0.018 ± 0.006
7 | Clc1ccc(COC(Cn2ccnc2)c2ccc(Cl)cc2Cl)cc1 (stereo not shown) [Econazole] | – | – | – | 46 ± 4 | – | 470 ± 130 | –
8 | C=C1CCN([C@H](C)[C@](O)(Cn2cncn2)c2ccc(F)cc2F)CC1 [Efinaconazole] | – | – | 15000 ± 1000 | 68 ± 2 | 92 | 6200 ± 1700 | –
9 | CC(C)=CCC[C@@H](C)[C@H]1CC=C2C3=C(CC[C@@]21C)[C@@]1(C)CC[C@H](O)C(C)(C)[C@@H]1CC3 [FF-MAS, 14-demethyl-14-dehydrolanosterol] | did not elicit any change | type I binding | – | – | – | – | Oxidation by reconstituted CYP51 [1]: no oxidation metabolites were detected; Oxidation by reconstituted CYP5122A1 [4]: metabolized by this enzyme
10 | OC(Cn1cncn1)(Cn1cncn1)c1ccc(F)cc1F [Fluconazole] | type II binding | no specific responses | – | – | – | > 100000 | Growth compared with control [13]: > 80%; Inhibition of intracellular parasites ([11]; 10 μM): < 50%; inhibition at 100 µM ([8]; read-out: % inhibition of CYP5122A1 at 100 μM): < 20%
11 | C[C@@H](c1nc(-c2ccc(C#N)cc2)cs1)[C@](O)(Cn1cncn1)c1cc(F)ccc1F [Isavuconazole] | – | – | 12000 | 43 ± 7 | 60 | 2600 ± 700 | –
12 | Clc1ccc(C(Cn2ccnc2)OCc2c(Cl)cccc2Cl)c(Cl)c1 (stereo not shown) [Isoconazole] | – | – | 6200 ± 500 | – | – | – | –
13 | CCC(C)n1ncn(-c2ccc(N3CCN(c4ccc(OCC5COC(Cn6cncn6)(c6ccc(Cl)cc6Cl)O5)cc4)CC3)cc2)c1=O (stereo not shown) [Itraconazole] | – | – | 6000 ± 1100 | 49 ± 9 | 43 | 2100 ± 400 | Growth compared with control [13]: < 20%
14 | CC(=O)N1CCN(c2ccc(OCC3COC(Cn4ccnc4)(c4ccc(Cl)cc4Cl)O3)cc2)CC1 (stereo not shown) [Ketoconazole] | – | – | 22000 ± 6000 | – | 8.7 | 420 ± 50 | Growth compared with control [13]: < 20%
15 | CC(C)=CCC[C@@H](C)[C@H]1CC[C@@]2(C)C3=C(CC[C@]12C)[C@@]1(C)CC[C@H](O)C(C)(C)[C@@H]1CC3 [Lanosterol] | typical type I binding | type I binding | – | – | – | – | Oxidation by reconstituted CYP51 [1]: C14-demethylation; Oxidation by reconstituted CYP5122A1 [4]: metabolized by this enzyme
16 | Clc1ccc(COC(Cn2ccnc2)c2ccc(Cl)cc2Cl)c(Cl)c1 (stereo not shown) [Miconazole] | – | – | – | 57 ± 3 | – | 1100 ± 200 | Growth inhibition of intracellular L. major and L. amazonensis [11]: strongly inhibited the growth
17 | N=C(N)c1ccc(OCCCCCOc2ccc(C(=N)N)cc2)cc1 [Pentamidine] | – | – | 14000 ± 1000 | – | – | – | Inhibition of LdCYP51 at 100 μM [14]: No inhibition at 100 μM; Inhibition of LdCYP5122A1 at 100 μM ([9]; 100 μM): No inhibition at 100 μM
18 | C[C@@H](c1nc(-c2ccc(C#N)cc2)cs1)[C@](O)(Cn1cncn1)c1ccc(F)cc1F [Ravuconazole] | – | – | 12000 ± 2000 | 49 ± 8 | 248 | 12000 ± 4000 | –
19 | Clc1ccc(C(Cn2ccnc2)OCc2csc3c(Cl)cccc23)c(Cl)c1 (stereo not shown) [Sertaconazole] | – | – | 7100 ± 500 | 64 ± 7 | 17 | 1100 ± 200 | –
20 | CC(C)=CCC[C@@H](C)[C@H]1CC[C@H]2C3=C(CC[C@]12C)[C@@]1(C)CC[C@H](O)C(C)(C)C1CC3 (stereo partly drawn) [T-MAS, 4,4-dimethylcholesta-8,24-dien-3β-ol] | did not elicit any change | type I binding | – | – | – | – | Oxidation by reconstituted CYP51 [1]: no oxidation metabolites were detected; Oxidation by reconstituted CYP5122A1 [4]: metabolized by this enzyme
21 | CC(C)N1CCN(c2ccc(OCC3COC(Cn4cncn4)(c4ccc(Cl)cc4Cl)O3)cc2)CC1 (stereo not shown) [Terconazole] | – | – | 13000 ± 1000 | 83 ± 9 | 140 | 12000 ± 3000 | –
22 | CC(C)=CCC[C@@H](C)[C@H]1CC[C@H]2C3=C(CC[C@]12C)[C@@]1(C)CC[C@H](O)C[C@@H]1CC3 [Zymosterol, 5α-Cholesta-8,24-dien-3β-ol] | atypical difference binding spectrum | did not induce any appreciable change | – | – | – | – | Oxidation by reconstituted CYP51 [1]: oxidized by CYP51 to form hydroxylated metabolites; Oxidation by reconstituted CYP5122A1 [4]: No oxidation metabolite formation

From paper PMC11528044 (Nature Communications, 2024)
